# Results as given in patent US11945822B2, “Pyrazolo-triazine and/or pyrazolo-pxrimidine derivatives as selective inhibitor of cyclin dependent kinase” (QURIENT CO., LTD., priority 2018, dated 2024).
# Tests used:
# MOLT-4 = assay: Cellular MOLT-4 viability assay (CellTiter-Glo, 72 hours); assay type: cell-based; details: Homo sapiens, MOLT4 viability assay
# Protocol: All cell lines were routinely tested for mycoplasma.
# The effect of the CDK7 inhibitor to inhibit the growth of target cancer cells was evaluated through the 72 hours time period of viability assay. Briefly, the candidate cell line ware plated in 96 well plate at the following density of cells respectively. […] DMSO solvent without compound served as a control and final DMSO concentration less than 0.1%. After 72 hours of incubation at 37° C., 5% CO2 incubator, cells were analyzed for the viability using the CellTiter-Glo Luminescent Cell Viability Assay (Promega, Cat #G7570). All viability assays were performed in duplicate and Luminescence was read using an Envision (Perkin Elmer, USA). Data was analyzed using XLfit software.
# CDK5/p25 = target: T1, CDK5/p25 (Homo sapiens, UniProt Q00535); assay: Enzymatic assay for CDK5 (FRET based LANCE Ultra kinase assay); assay type: biochemical; details: read-out: CDK5 enzymatic activity (IC50 range)
# T1 construct: purchased Invitrogen PR8543B
# Procedure, shortened: (§1)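 Each CDK complex ([…]) phosphorylated 68 nM ULight-MBP peptide with ATP at Km for 60 min at 23° C., against 8 compound doses (4-fold dilutions). EDTA/Eu-anti-phospho-MBP detection, 60 min, then TR-FRET emission at 615 and 665 nm.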
# CDK7/Cyclin H/MNAT1 = target: T2, CDK7/Cyclin H/MNAT1 (Homo sapiens, UniProt P50613); assay: Enzymatic assay for CDK7 (FRET based LANCE Ultra kinase assay); assay type: biochemical; details: for IC50: read-out: CDK7 enzymatic activity (IC50 range)
# T2 construct: purchased Invitrogen PR6749B
# Procedure, shortened: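 LANCE Ultra TR-FRET kinase assay using a ULight-labeled peptide substrate and a Eu-labeled anti-phospho antibody, with ATP at its Km. Purified CDK/cyclin complex was added to compound after brief centrifugation.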
# CDK2/Cyclin A = target: T3, CDK2/Cyclin A (Homo sapiens, UniProt P24941); assay: Enzymatic assay for CDK2 (FRET based LANCE Ultra kinase assay); assay type: biochemical; details: read-out: CDK2 enzymatic activity (IC50 range)
# T3 construct: purchased Invitrogen PV6290
# Procedure, shortened: as §1
# CDK1/Cyclin B = target: T4, CDK1/Cyclin B (Homo sapiens, UniProt P06493); assay: Enzymatic assay for CDK1 (FRET based LANCE Ultra kinase assay); assay type: biochemical; details: read-out: CDK1 enzymatic activity (IC50 range)
# T4 construct: purchased Invitrogen PR4768C
# Procedure, shortened: as §1
# MV4-11 = assay: Cellular MV4-11 viability assay (CellTiter-Glo, 72 hours); assay type: cell-based; details: Homo sapiens
# Procedure, shortened: (§2)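 Steps: seed cells at per-line density; add compound, DMSO vehicle kept under 0.1% final; incubate 72 h, 37 °C, 5% CO2; lyse with CellTiter-Glo and read luminescence; run in duplicate.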
# H460 = assay: Cellular H460 viability assay (CellTiter-Glo, 72 hours); assay type: cell-based; details: Homo sapiens, NCI-H460
# Procedure, shortened: as §2
# HCT116 = assay: Cellular HCT116 viability assay (CellTiter-Glo, 72 hours); assay type: cell-based; details: Homo sapiens, HCT-116
# Procedure, shortened: as §2
# T2 sequence (P50613 whole entry): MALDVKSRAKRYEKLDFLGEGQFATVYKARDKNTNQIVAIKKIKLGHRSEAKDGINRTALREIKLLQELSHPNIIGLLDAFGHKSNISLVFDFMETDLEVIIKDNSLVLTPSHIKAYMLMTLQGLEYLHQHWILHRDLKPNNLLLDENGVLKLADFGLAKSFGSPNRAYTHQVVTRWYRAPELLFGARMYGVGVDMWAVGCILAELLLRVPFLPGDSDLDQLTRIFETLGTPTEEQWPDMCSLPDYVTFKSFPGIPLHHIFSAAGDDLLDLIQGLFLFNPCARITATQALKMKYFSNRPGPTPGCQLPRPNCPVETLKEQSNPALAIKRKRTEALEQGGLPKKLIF
# T2 sequence (P51946 whole entry partner): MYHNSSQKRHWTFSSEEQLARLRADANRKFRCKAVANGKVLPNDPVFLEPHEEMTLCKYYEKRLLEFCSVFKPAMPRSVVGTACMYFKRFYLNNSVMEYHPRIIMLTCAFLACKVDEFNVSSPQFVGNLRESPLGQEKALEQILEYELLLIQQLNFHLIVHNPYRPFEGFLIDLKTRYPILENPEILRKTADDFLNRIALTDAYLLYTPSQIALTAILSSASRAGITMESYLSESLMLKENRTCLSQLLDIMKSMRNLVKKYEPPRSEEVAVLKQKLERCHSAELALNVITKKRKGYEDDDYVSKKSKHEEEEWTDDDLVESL
# T2 sequence (P51948 whole entry partner): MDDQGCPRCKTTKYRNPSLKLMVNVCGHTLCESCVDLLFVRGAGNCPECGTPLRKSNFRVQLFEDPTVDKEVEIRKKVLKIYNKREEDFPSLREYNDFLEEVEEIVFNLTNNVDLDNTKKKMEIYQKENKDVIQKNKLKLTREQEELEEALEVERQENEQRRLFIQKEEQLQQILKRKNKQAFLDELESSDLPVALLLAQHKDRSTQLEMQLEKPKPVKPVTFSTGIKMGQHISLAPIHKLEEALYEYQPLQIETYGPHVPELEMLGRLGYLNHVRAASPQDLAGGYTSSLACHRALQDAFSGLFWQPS
# T4 sequence (P06493 whole entry): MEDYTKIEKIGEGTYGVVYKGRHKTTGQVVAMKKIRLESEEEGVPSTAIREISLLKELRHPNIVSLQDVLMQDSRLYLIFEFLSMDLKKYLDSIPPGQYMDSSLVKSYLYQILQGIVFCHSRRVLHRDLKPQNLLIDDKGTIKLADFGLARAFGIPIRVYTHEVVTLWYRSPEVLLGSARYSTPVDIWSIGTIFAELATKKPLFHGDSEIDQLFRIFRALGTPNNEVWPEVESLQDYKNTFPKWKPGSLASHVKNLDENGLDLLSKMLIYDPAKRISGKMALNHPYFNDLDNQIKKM
# T4 sequence (P14635 whole entry partner): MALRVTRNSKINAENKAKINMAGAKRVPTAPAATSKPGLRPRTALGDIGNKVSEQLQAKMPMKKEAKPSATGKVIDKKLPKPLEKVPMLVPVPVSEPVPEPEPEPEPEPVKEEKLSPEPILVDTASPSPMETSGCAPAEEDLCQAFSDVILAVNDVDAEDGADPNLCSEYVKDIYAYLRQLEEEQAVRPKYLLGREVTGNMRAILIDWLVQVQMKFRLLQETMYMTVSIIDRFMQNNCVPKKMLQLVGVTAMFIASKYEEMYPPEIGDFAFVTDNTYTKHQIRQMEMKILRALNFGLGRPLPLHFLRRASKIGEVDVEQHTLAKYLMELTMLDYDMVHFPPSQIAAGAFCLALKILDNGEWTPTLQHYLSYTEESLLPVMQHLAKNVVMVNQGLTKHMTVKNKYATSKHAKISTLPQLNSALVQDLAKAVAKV
# T1 sequence (Q00535 whole entry): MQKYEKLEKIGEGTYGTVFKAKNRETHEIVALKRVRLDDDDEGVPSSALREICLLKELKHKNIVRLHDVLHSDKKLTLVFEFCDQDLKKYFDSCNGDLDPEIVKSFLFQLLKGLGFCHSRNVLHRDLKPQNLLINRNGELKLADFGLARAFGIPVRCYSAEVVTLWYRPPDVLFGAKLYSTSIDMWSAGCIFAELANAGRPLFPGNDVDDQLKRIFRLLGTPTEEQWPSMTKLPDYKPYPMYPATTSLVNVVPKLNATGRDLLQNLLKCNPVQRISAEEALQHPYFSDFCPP
# T1 sequence (Q15078 99-307 partner limits assumed): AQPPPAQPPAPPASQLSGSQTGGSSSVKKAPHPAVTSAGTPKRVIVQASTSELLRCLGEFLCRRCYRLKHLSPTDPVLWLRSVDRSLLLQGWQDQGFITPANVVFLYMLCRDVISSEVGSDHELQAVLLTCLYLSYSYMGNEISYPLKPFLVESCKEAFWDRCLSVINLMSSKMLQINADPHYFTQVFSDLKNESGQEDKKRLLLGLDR
SMILES,IC50 (MOLT-4) [µM],IC50 (CDK5/p25) [µM],CDK1/CDK7: Selectivity of CDK7 inhibition over CDK1 inhibition (CDK7/Cyclin H/MNAT1),CDK2/CDK7: Selectivity of CDK7 inhibition over CDK2 inhibition (CDK7/Cyclin H/MNAT1),CDK5/CDK7: Selectivity of CDK7 inhibition over CDK5 inhibition (CDK7/Cyclin H/MNAT1),IC50 (CDK7/Cyclin H/MNAT1) [µM],IC50 (CDK2/Cyclin A) [µM],IC50 (CDK1/Cyclin B) [µM],IC50 (MV4-11) [µM],IC50 (H460) [µM],IC50 (HCT116) [µM]
CC(C)c1cnn2c(NCc3cccc(Oc4cccc(NC(=O)CCCN(C)C)c4)c3)nc(N3CCC(N)CC3)nc12 [Compound 84],1 to 10,,,,,,,,,,
CCC(=O)Nc1cccc(Oc2cccc(CNc3nc(N4CCC(N)CC4)nc4c(C(C)C)cnn34)c2)c1 [Compound 86],1 to 10,< 0.1,"B (B=less than 200 fold, but greater than 20 fold)","B (B=less than 200 fold, but greater than 20 fold)",C (C=less than 20 fold),< 0.1,0.1 to 1,0.1 to 1,,,
CC(C)c1cnn2c(NCc3cccc(N4CCN(C)CC4)c3)nc(N3CCC(N)CC3)nc12 [Compound 83],1 to 10,0.1 to 1,A (A=greater than 200 fold),A (A=greater than 200 fold),"B (B=less than 200 fold, but greater than 20 fold)",< 0.1,0.1 to 1,> 1,,,
NC1CCN(c2nc(NCc3ccccc3-n3cccn3)n3ncc(I)c3n2)CC1 [Compound 36],1 to 10,< 0.1,"B (B=less than 200 fold, but greater than 20 fold)",C (C=less than 20 fold),C (C=less than 20 fold),< 0.1,0.1 to 1,0.1 to 1,,,
CC(C)c1cnn2c(NCc3cccc(Oc4ccc(Cl)c(NC(=O)CCCN(C)C)c4)c3)nc(N3CCC(N)CC3)nc12 [Compound 94],1 to 10,0.1 to 1,A (A=greater than 200 fold),"B (B=less than 200 fold, but greater than 20 fold)","B (B=less than 200 fold, but greater than 20 fold)",< 0.1,0.1 to 1,0.1 to 1,,,
CC(C)c1cnn2c(NCc3ccccc3-c3ccc4ccccc4[n+]3[O-])nc(N3CCC(N)CC3)nc12 [Compound 81],> 10,> 1,A (A=greater than 200 fold),A (A=greater than 200 fold),A (A=greater than 200 fold),< 0.1,> 1,> 1,,,
CC(C)c1cnn2c(NCc3cccc(N4CCN(C(=O)CCCN(C)C)CC4)c3)nc(N3CCC(N)CC3)nc12 [Compound 85],> 10,,,,,,,,,,
CC(C)c1cnn2c(NCc3ccccc3-n3cccn3)nc(Nc3ccc(C4CCNCC4)cn3)nc12 [Compound 169],1 to 10,> 1,A (A=greater than 200 fold),"B (B=less than 200 fold, but greater than 20 fold)","B (B=less than 200 fold, but greater than 20 fold)",< 0.1,> 1,> 1,,,
NC1CCN(c2nc(NCc3ccccc3-n3cccn3)n3ncc(F)c3n2)CC1 [Compound 37],> 10,,,,,,,,,,
CC(C)c1cnn2c(NCc3ccccc3Oc3cccc(NC(=O)CCCN(C)C)c3)nc(N3CCC(N)CC3)nc12 [Compound 82],1 to 10,,,,,,,,,,
CC(=O)NC1CCN(c2nc(NCc3c(Cl)cccc3-n3ccc(C(C)(C)O)n3)n3ncc(C(C)C)c3n2)CC1 [Compound 199],,> 1,A (A=greater than 200 fold),A (A=greater than 200 fold),A (A=greater than 200 fold),< 0.1,> 1,> 1,1 to 10,< 1,< 1
CC(C)c1cnn2c(NCc3ccccc3-n3cccn3)nc(Oc3ccc(N4CCCC4)cc3)nc12 [Compound 162],> 10,,,,,,,,,,
CC(C)c1cnn2c(NCc3ccccc3-n3ccc(C(C)(C)O)n3)nc(OCC3CCNCC3)nc12 [Compound 227],,> 1,A (A=greater than 200 fold),A (A=greater than 200 fold),A (A=greater than 200 fold),< 0.1,> 1,> 1,1 to 10,< 1,< 1
CC(C)c1cnn2c(NCc3ccccc3-n3cc(N4CCN(C)CC4)cn3)nc(N3CCC(N)CC3)nc12 [Compound 179],,0.1 to 1,"B (B=less than 200 fold, but greater than 20 fold)","B (B=less than 200 fold, but greater than 20 fold)","B (B=less than 200 fold, but greater than 20 fold)",< 0.1,0.1 to 1,0.1 to 1,< 1,< 1,< 1
CC1CCN(c2cnn(-c3cccc(Cl)c3CNc3nc(N4CCC(N)CC4)nc4c(C(C)C)cnn34)c2)CC1 [Compound 204],,> 1,A (A=greater than 200 fold),A (A=greater than 200 fold),A (A=greater than 200 fold),< 0.1,> 1,> 1,< 1,< 1,< 1
CC(C)c1cnn2c(NCc3ccccc3-c3ccc4ccccc4n3)nc(OCC3CCNCC3)nc12 [Compound 215],,> 1,A (A=greater than 200 fold),A (A=greater than 200 fold),A (A=greater than 200 fold),< 0.1,> 1,> 1,1 to 10,< 1,1 to 10
CC(C)c1cnn2c(NCc3ccccc3-n3ccc(C(C)(C)O)n3)nc(NCC3(O)CCNCC3)nc12 [Compound 229],,0.1 to 1,"B (B=less than 200 fold, but greater than 20 fold)",C (C=less than 20 fold),C (C=less than 20 fold),< 0.1,0.1 to 1,> 1,1 to 10,1 to 10,1 to 10
